We go through 14 compounds from BindingDB's records for patent US10377770 (Novartis, 2019).

A value given as a limit tells only on which side of the number the result lay.

The target of the test is RAF proto-oncogene serine/threonine-protein kinase [Y340E,Y341E] (Human, UniProt P04049, Y340E/Y341E). The test can be described thus: Biological Assays. From the text: The activity of a compound according to the present invention can be assessed by well-known in vitro & in vivo methods. […] CRAF cDNA was subcloned as full length protein, with Y340E and Y341E activating mutations, into a baculovirus expression vector for Sf9 insect cell expression. h14-3-3 zeta cDNA was subcloned into a baculovirus expression vector for SF9 insect cell expression. Sf9 cells co-expressing both proteins were lysed and subjected to immobilized nickel chromatography and eluted with Imidazole. A second column (StrepII binding column) was used and eluted with desthiobiotin. Protein Tags were removed using Prescission enzyme and the protein was further purified using a flowthrough step to remove tags.C-Raf TR refers to a truncated C-Raf protein, a Δ1-324 deletion mutant. C-Raf FL refers to the full-length C-Raf protein.Full length MEK1 with an inactivating K97R ATP binding site mutation is utilized as a RAF substrate. The MEK1 cDNA was subcloned with an N-terminal (his)6 tag into a vector for E. Coli expression. The MEK1 substrate was purified from E. Coli lysate by nickel affinity chromatography followed by anion exchange. The final MEK1 preparation was biotinylated (Pierce EZ-Link Sulfo-NHS-LC-Biotin) and concentrated.Assay Materials: Assay buffer is 50 mM Tris, pH 7.5, 15 mM MgCl2, 0.01% Bovine Serum Albumin (BSA) and 1 mM dithiothreitol (DTT); Stop buffer is 60 mM ethylenediaminetetraacetic acid (EDTA) and 0.01% Tween 20; b-Raf (V600E), active; biotinylated Mek, kinase dead; Alpha Screen detection kit (available from PerkinElmer , #6760617R); Anti phospho-MEK1/2 (available from Cell Signaling Technology, Inc. #9121); 384 well low volume assay plates (White Greiner plates).Assay conditions: b-Raf (V600E) approximately 4 pM; c-Raf approximately 4 nM; biotinylated Mek, kinase dead approximately 10 nM; ATP 10 μM for BRAF (V600E) and 1 μM for CRAF; Pre-incubation time with compounds 60 minutes at room temperature; Reaction time 1 or 3 hours at room temperature.Assay protocol: Raf and biotinylated Mek (kinase dead) were combined at 2× final concentrations in assay buffer (50 mM Tris, pH 7.5, 15 mM MgCl2, 0.01% BSA and 1 mM DTT) and dispensed […] per well in assay plates (Greiner white 384 well assay plates #781207) containing […] of 40× of a Raf kinase inhibitor test compound diluted in 100% DMSO. The plate was incubated for 60 minutes at room temperature. The Raf kinase activity reaction was started by the addition of […] per well of 2×ATP diluted in assay buffer. After 3 hours (b-Raf(V600E)) or 1 hour (c-Raf). The reactions were stopped and the phosphorylated product was measured using a rabbit anti-p-MEK (Cell Signaling, #9121) antibody and the Alpha Screen IgG (ProteinA) detection Kit (PerkinElmer #6760617R), by the addition of […] to the well of a mixture of the antibody (1:2000 dilution) and detection beads (1:2000 dilution of both beads) in Stop/bead buffer (25 mM EDTA, 50 mM Tris, pH 7.5, 0.01% Tween20). The additions were carried out under dark conditions to protect the detection beads from light. A lid was placed on top of the plate and incubated for 1 hour at room temperature, after which the luminescence was read on a PerkinElmer Envision instrument.
RAF proto-oncogene serine/threonine-protein kinase [Y340E,Y341E], sequence (P04049 whole entry Y340E/Y341E): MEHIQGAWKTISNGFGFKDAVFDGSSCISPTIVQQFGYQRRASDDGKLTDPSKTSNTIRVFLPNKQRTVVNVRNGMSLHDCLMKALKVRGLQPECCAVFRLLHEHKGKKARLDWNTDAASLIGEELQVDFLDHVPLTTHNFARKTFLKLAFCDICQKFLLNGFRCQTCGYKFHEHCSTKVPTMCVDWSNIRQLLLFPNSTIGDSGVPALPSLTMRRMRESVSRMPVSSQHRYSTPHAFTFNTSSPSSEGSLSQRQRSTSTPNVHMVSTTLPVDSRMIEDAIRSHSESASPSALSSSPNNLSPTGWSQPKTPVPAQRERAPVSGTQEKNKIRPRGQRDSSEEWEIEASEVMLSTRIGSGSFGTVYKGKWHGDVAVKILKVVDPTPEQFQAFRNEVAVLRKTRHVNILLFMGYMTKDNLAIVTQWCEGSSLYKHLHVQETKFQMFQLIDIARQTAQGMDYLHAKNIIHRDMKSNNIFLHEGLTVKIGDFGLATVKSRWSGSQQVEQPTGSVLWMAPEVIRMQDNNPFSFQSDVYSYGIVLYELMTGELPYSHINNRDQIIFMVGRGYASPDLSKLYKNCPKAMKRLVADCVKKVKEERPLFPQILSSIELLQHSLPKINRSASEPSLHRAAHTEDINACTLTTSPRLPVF
For the compound `Cc1ccc(NC(=O)c2ccnc(C(F)(F)F)c2)cc1-c1cnc2c(c1)N1CCOCC1C1(COC1)C2` (racemic) [US10377770, Example 153], half-maximal inhibition (IC50) was put at 5 pM. This counts as picomolar.

Turning to `CCN1C(=O)[C@@H]2COCCN2c2cc(-c3cc(NC(=O)c4ccnc(C(F)(F)F)c4)ccc3C)nnc21` [US10377770, Example 133], 11 pM corresponded to half-maximal inhibition (IC50).

In turn, `CCN1C(=O)[C@H]2COCCN2c2cc(-c3cc(NC(=O)c4ccnc(C(F)(F)F)c4)ccc3C)nnc21` [US10377770, Example 134] registered a half-maximal inhibitory concentration (IC50) of 16 pM. This IC50 and that of the compound before are within 1.5-fold of each other.

Turning to `CCN1C(=O)[C@@H]2COCC[C@H]2c2cc(-c3cc(NC(=O)c4cnnc(C(F)(F)F)c4)ccc3C)cnc21` [US10377770, Example 257], the concentration for half-maximal inhibition (IC50) is less than 100 pM.

`Cc1ccc(NC(=O)c2ccnc(C(F)(F)F)c2)cc1-c1cnc2c(c1)[C@@H]1CCOC[C@H]1C(=O)N2CCO` [US10377770, Example 258] gave an IC50 of less than 100 pM.

For `Cc1ccc(NC(=O)c2ccnc(C(C)(F)F)c2)cc1-c1cnc2c(c1)[C@@H]1CCOC[C@H]1C(=O)N2CCO` [US10377770, Example 267], the IC50 is less than 100 pM.

`Cc1ccc(NC(=O)c2ccnc(C(F)(F)F)c2)cc1-c1cnc2c(c1)C1CCOCCC1C(=O)N2CCO` (centres undefined) [US10377770, Example 284] registered an IC50 of less than 100 pM.

`Cc1ccc(NC(=O)c2ccnc(C(C)(F)F)c2)cc1-c1cnc2c(c1)C1CCOCCC1C(=O)N2CCO` (centres undefined) [US10377770, Example 286] yielded an IC50 of less than 100 pM.

As to `CCN1C(=O)OC2COCCC2c2cc(-c3cc(NC(=O)c4ccnc(C(F)(F)F)c4)ccc3C)cnc21` (centres undefined) [US10377770, Example 297], the IC50 was determined as 900 pM.

Regarding `CCN1C(=O)OC2COCCC2c2cc(-c3cc(NC(=O)c4cnnc(C(F)(F)F)c4)ccc3C)cnc21` (centres undefined) [US10377770, Example 301], the IC50 is less than 100 pM.

Take `Cc1ccc(NC(=O)c2ccnc(C(F)(F)F)c2)cc1-c1cnc2c(c1)N1CCOC[C@H]1CC(=O)N2CCO` [US10377770, Example 333]: the IC50 was less than 100 pM.

`Cc1ccc(NC(=O)c2ccnc(C(F)(F)F)n2)cc1-c1ccc2c(c1)N1CCOC[C@H]1[C@](F)(CO)C2` [US10377770, Example 388] yielded an IC50 of 400 pM.

In turn, `Cc1ccc(NC(=O)c2cccc(C(F)(F)F)n2)cc1-c1ccc2c(c1)N1CCOC[C@H]1[C@](F)(CO)C2` [US10377770, Example 389] came in with an IC50 of 500 pM.

Compound `Cc1ccc(NC(=O)c2ccnc(C(F)(F)F)c2)cc1-c1ccc2c(c1)N1CCOC[C@@H]1[C@@](CO)(CF)C2` [US10377770, Example 405] gave an IC50 of 200 pM.

What is called IC50 is the midpoint of a concentration-inhibition curve. Lower therefore signals higher potency.
